Assay results: ChEMBL document CHEMBL5465560, “Selectivity Literature for EUbOPEN Chemogenomic Library” (2024)

Assays:
[1] = biological target: T1, Phosphatidylinositol 4,5-bisphosphate 3-kinase catalytic subunit delta isoform (Homo sapiens) (UniProt O00329); experiment: Selectivity interaction (KinomeScan (DiscoverX)) EUB0000229b PIK3CD; conditions: at 10 µM
T1 sequence (whole entry): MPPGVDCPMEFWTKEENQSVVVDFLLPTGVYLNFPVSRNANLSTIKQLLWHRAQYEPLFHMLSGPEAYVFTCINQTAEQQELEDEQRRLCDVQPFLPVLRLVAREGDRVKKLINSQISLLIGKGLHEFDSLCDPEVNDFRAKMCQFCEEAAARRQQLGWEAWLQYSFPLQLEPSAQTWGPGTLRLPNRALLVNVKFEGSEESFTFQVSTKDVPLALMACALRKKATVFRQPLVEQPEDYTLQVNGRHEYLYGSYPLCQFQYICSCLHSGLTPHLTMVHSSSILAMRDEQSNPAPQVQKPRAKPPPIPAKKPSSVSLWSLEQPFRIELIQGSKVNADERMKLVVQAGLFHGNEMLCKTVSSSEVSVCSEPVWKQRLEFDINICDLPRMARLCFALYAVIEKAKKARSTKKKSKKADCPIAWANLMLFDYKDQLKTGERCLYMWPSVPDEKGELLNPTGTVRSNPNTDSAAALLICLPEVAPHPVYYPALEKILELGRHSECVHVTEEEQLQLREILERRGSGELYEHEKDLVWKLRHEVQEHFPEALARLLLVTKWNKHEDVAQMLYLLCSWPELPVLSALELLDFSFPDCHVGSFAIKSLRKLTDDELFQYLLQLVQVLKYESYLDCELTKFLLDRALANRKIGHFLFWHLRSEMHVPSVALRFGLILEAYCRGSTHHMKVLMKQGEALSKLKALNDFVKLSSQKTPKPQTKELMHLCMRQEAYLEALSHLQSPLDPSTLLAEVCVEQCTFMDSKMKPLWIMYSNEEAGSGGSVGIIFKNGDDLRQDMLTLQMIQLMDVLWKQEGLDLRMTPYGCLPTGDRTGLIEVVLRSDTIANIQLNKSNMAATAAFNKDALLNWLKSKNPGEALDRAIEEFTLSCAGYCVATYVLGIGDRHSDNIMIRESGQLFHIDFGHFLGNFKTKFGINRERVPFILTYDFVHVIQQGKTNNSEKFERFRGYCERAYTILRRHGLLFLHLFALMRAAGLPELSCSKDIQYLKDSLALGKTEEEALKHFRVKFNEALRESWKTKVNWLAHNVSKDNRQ

[2] = Selectivity interaction (Androgen receptor agonist/antagonist FRET assay, rat recombinant ) EUB0000877a AR
[3] = biological target: T2, Activin receptor type-1 (Homo sapiens) (UniProt Q04771); experiment: Selectivity interaction (ProQinase) EUB0000171b ACVR1
T2 sequence (whole entry): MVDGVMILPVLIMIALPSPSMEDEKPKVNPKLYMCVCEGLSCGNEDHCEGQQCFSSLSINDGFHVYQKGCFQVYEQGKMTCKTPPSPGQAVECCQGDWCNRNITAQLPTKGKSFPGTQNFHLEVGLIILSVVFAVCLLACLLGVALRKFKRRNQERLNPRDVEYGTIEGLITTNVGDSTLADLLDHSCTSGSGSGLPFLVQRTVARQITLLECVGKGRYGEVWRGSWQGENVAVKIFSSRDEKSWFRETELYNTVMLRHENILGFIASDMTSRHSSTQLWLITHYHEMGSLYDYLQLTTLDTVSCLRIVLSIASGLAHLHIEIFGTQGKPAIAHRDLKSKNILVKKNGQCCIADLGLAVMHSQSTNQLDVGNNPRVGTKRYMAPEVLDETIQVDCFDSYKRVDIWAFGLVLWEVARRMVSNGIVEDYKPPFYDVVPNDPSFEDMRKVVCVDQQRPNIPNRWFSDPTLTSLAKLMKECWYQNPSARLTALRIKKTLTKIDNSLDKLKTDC

[4] = biological target: T3, Testis-specific serine/threonine-protein kinase 2 (Homo sapiens) (UniProt Q96PF2); experiment: Selectivity interaction (SelectScreen profiling (Invitrogen)) EUB0000607a TSSK2; conditions: at 2 µM
T3 sequence (whole entry): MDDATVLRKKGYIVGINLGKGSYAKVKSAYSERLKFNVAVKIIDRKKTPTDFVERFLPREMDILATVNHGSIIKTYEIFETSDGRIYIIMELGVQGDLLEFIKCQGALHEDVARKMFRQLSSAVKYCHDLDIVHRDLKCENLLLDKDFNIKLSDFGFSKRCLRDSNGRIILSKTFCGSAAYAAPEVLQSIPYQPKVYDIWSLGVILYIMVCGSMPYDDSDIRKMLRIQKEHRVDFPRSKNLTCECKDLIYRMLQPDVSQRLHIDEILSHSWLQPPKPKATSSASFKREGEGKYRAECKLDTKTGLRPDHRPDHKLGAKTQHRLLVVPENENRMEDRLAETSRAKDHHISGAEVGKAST

[5] = biological target: T4, cGMP-dependent protein kinase 2 (Homo sapiens) (UniProt Q13237); experiment: Selectivity interaction (KinomeScan (DiscoverX)) EUB0000655a PRKG2; conditions: at 10 µM
T4 sequence (whole entry): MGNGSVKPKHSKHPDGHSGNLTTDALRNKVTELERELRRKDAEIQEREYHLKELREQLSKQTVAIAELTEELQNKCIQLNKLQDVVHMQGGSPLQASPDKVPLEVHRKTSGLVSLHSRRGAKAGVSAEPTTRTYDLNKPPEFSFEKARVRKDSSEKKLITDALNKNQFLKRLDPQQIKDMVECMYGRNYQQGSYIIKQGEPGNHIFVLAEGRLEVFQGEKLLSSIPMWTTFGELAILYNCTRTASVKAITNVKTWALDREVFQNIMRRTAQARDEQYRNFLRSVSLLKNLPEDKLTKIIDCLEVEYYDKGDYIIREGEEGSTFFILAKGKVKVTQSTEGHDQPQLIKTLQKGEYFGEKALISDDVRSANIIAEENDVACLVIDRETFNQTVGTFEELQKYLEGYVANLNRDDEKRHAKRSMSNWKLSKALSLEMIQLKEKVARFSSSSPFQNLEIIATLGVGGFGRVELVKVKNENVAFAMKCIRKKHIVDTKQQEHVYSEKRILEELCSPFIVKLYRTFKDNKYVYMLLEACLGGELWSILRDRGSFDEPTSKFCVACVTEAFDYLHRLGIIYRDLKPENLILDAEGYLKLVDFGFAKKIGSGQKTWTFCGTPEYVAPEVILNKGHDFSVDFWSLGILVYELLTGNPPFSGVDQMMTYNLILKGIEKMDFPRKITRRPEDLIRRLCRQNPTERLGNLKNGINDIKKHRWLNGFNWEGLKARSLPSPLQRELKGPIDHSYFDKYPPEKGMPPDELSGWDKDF

[6] = biological target: Death-associated protein kinase 3 (Homo sapiens) (UniProt O43293); experiment: Selectivity interaction (KinomeScan (DiscoverX)) EUB0000655a DAPK3; conditions: at 10 µM
Sequence of Death-associated protein kinase 3 (Homo sapiens) (O43293 whole entry, looked up): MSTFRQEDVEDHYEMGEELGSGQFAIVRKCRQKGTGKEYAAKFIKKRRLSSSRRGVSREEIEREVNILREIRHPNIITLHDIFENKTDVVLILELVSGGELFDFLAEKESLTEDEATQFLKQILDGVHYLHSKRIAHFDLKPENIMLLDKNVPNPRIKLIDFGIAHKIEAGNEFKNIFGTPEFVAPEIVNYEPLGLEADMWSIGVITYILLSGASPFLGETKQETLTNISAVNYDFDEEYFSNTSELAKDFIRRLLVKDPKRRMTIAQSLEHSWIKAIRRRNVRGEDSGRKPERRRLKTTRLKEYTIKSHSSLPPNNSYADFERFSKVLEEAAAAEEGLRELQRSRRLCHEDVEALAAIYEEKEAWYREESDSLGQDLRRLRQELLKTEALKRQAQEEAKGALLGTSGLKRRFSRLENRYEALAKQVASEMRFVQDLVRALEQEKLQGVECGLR

COc1cc(N(C)c2ccnc3ccc(C(F)(F)F)cc23)cc(OC)c1OC
% binding [1]: 86%

CCC(=O)N1CC[C@H](Nc2ncnc3c2CN(c2cnc(OC)c(C(F)(F)F)c2)CC3)C1 [LENIOLISIB]
IC50 [2]: > 30 µM

C=CC(=O)Nc1cccc(C(=O)Nc2ccc(Nc3cc(-c4[nH]c(SC)nc4C)ccn3)cc2)c1
% of control ([3]; at 1 µM): 85% | % of control ([3]; at 5 µM): 54%

CNC(=O)Nc1ccc(-c2nc(N3CC4CCC(C3)O4)c3cnn(C4CCC5(CC4)OCCO5)c3n2)cc1
% of inhibition [4]: 2%

CN(C)CCOc1ccc(-c2nc(-c3ccncc3)c(-c3ccc4c(c3)CC/C4=N\O)[nH]2)cc1
% of control [5]: 29% | % of control [6]: 89%
